# Laboratory results reported in patent US20250221963A1 (GH RESEARCH IRELAND LIMITED, priority 2022, published 2025).
# What was measured:
# [1] = test system: Escherichia coli WP2 uvrA pKM101; test: Bacterial mutation test, Escherichia coli; assay type: cell-based; conditions: up to 5000 μg/plate, absence and presence of S-9
# Description: These conditions included treatments at concentrations up to 5000 μg/plate (the maximum recommended concentration according to current regulatory guidelines), in the absence and in the presence of a rat liver metabolic activation system (S-9).
# [2] = test system: patients with treatment-resistant major depressive disorder (TRD); test: Phase 1/2 clinical trial of inhaled 5-MeO-DMT in TRD; conditions: for Patients with at least one ADR: Part A
# Description: Patients were assigned to different groups. In the context of the present invention, the group who received a single, 12 mg dose and the group who underwent an intra-day individualized dosing regimen (IDR) that allowed for multiple, escalating doses (6 mg, 12 mg and 18 mg) within a single day, driven by the intensity of the patient-reported psychedelic experience are of interest.
# The data gathered include the assessment of the treated patients against several scales including the Montgomery Åsberg Depression Rating Scale (MADRS) and the Brief Psychiatric Rating Scale (BPRS).
# This trial was designed in two parts. Part A was an open-label, single-arm, single-dose Phase 1 trial with two dose levels (12 mg (n=4) and 18 mg (n=4)). […] The primary endpoint of Part B was to assess the effects on the severity of depression, as assessed by the proportion of patients in remission on day seven after dosing, defined as a MADRS total score of less than or equal to 10.
# [3] = 12 mg n=4, 2 hours, baseline 16
compound,measurement,setting,value
COc1ccc2[nH]cc(CCN(C)C)c2c1 [5-MeO-DMT],Induction of mutation,[1],did not induce mutation
same,MADRS Concentration Difficulties improvement,"[2]; 12 mg n=4, 2 hours",9 points
same,MADRS Inability to Feel improvement,"[2]; 12 mg n=4, 2 hours",7 points
same,MADRS Inner Tension improvement,"[2]; 12 mg n=4, 2 hours",11 points
same,MADRS Lassitude improvement,"[2]; 12 mg n=4, 2 hours",6 points
same,MADRS Pessimistic Thoughts improvement,"[2]; 12 mg n=4, 2 hours",8 points
same,MADRS Pessimistic Thoughts percentage improvement,"[2]; 12 mg n=4, 2 hours",50.00%
same,MADRS Suicidal Thoughts improvement,"[2]; 12 mg n=4, 2 hours",5 points
same,MADRS Suicidal Thoughts aggregated score,"[2]; 12 mg n=4, 2 hours, baseline 8",3
same,MADRS Inner Tension aggregated score,"[2]; 12 mg n=4, 2 hours, baseline 13",2
same,MADRS Concentration Difficulties aggregated score,[2]; [3],7
same,MADRS Inability to Feel aggregated score,[2]; [3],9
same,MADRS Lassitude aggregated score,[2]; [3],10
same,MADRS Pessimistic Thoughts aggregated score,[2]; [3],8
same,BPRS Anxiety improvement,"[2]; 12 mg n=4, 3 hours",14 points
same,BPRS Anxiety percentage improvement,"[2]; 12 mg n=4, 3 hours",56.00%
same,BPRS Blunted Affect improvement,"[2]; 12 mg n=4, 3 hours",3 points
same,BPRS Emotional Withdrawal improvement,"[2]; 12 mg n=4, 3 hours",2 points
same,BPRS Guilt Feelings improvement,"[2]; 12 mg n=4, 3 hours",9 points
same,BPRS Guilt Feelings percentage improvement,"[2]; 12 mg n=4, 3 hours",50.00%
same,BPRS Tension improvement,"[2]; 12 mg n=4, 3 hours",5 points
same,BPRS Blunted Affect aggregated score,"[2]; 12 mg n=4, 3 hours, baseline 11",8
same,BPRS Emotional Withdrawal aggregated score,"[2]; 12 mg n=4, 3 hours, baseline 13",11
same,BPRS Tension aggregated score,"[2]; 12 mg n=4, 3 hours, baseline 14",9
same,BPRS Guilt Feelings aggregated score,"[2]; 12 mg n=4, 3 hours, baseline 18",9
same,BPRS Anxiety aggregated score,"[2]; 12 mg n=4, 3 hours, baseline 25",11
same,Patients maintaining remission,[2]; Day 7,7/8
same,MADRS Concentration Difficulties improvement,"[2]; IDR n=8, 2 hours",19 points
same,MADRS Inability to Feel improvement,"[2]; IDR n=8, 2 hours",24 points
same,MADRS Inner Tension improvement,"[2]; IDR n=8, 2 hours",15 points
same,MADRS Lassitude improvement,"[2]; IDR n=8, 2 hours",17 points
same,MADRS Pessimistic Thoughts improvement,"[2]; IDR n=8, 2 hours",21 points
same,MADRS Pessimistic Thoughts percentage improvement,"[2]; IDR n=8, 2 hours",75.00%
same,MADRS Suicidal Thoughts improvement,"[2]; IDR n=8, 2 hours",8 points
same,MADRS Suicidal Thoughts aggregated score,"[2]; IDR n=8, 2 hours, baseline 11",3
same,MADRS Inner Tension aggregated score,"[2]; IDR n=8, 2 hours, baseline 26",11
same,MADRS Lassitude aggregated score,"[2]; IDR n=8, 2 hours, baseline 27",10
same,MADRS Pessimistic Thoughts aggregated score,"[2]; IDR n=8, 2 hours, baseline 28",7
same,MADRS Concentration Difficulties aggregated score,"[2]; IDR n=8, 2 hours, baseline 30",11
same,MADRS Inability to Feel aggregated score,"[2]; IDR n=8, 2 hours, baseline 36",12
same,BPRS Anxiety improvement,"[2]; IDR n=8, 3 hours",18 points
same,BPRS Blunted Affect improvement,"[2]; IDR n=8, 3 hours",4 points
same,BPRS Emotional Withdrawal improvement,"[2]; IDR n=8, 3 hours",5 points
same,BPRS Guilt Feelings improvement,"[2]; IDR n=8, 3 hours",20 points
same,BPRS Tension improvement,"[2]; IDR n=8, 3 hours",5 points
same,BPRS Emotional Withdrawal aggregated score,"[2]; IDR n=8, 3 hours, baseline 13",8
same,BPRS Blunted Affect aggregated score,"[2]; IDR n=8, 3 hours, baseline 15",11
same,BPRS Tension aggregated score,"[2]; IDR n=8, 3 hours, baseline 16",11
same,BPRS Guilt Feelings aggregated score,"[2]; IDR n=8, 3 hours, baseline 34",14
same,BPRS Anxiety aggregated score,"[2]; IDR n=8, 3 hours, baseline 37",19
same,"Safety laboratory analyses, vital signs, psychiatric safety assessments, cognitive function",[2]; Part A and Part B,No clinically significant changes
same,Patients with at least one ADR,[2]; 12 mg,3 of 4
same,Patients with at least one ADR,[2]; 18 mg,3 of 4
same,Patients with MADRS remission,"[2]; Part B, IDR n=8, day seven",87.5%
same,"Mean MADRS change from baseline, percent","[2]; Part B, IDR, day seven",76%
same,Patients achieving remission,[2]; day 1,8/8
same,Patients achieving remission,[2]; within 2 h after dosing,5/8
